Assay results: article PMC3225327 (Journal of Biomedical Science, 2011)

Legend:
PDE5 = test: Inhibition of PDE5 activity, two-step procedure; type: biochemical; settings: homogenate of guinea pig lungs or hearts
Experimental: Activities of PDE1~5 in the homogenate of guinea pig lungs or hearts were measured by a two-step procedure according to the previous method, using cAMP with [^3H]-cAMP or cGMP with [^3H]-cGMP as substrates. […] The reagents and homogenate were mixed on ice, and the reaction was initiated by transferring the mixture to a water bath at 37°C. Following a 30-min incubation, the reaction was stopped by transferring the reaction vessel to a bath of boiling water for 3 min. After cooling on ice, 20 μl of a 1 mg/ml solution of Crotalus atrox snake venom was added to the reaction mixture, and the mixture was incubated at 37°C for 10 min. Unreacted [^3H]-cAMP or [^3H]-cGMP was removed by the addition of 500 μl of a 1-in-1 Tris-HCl (40 mM) buffer suspension of Dowex resin (1 × 8-200) with incubation on ice for 30 min. Each tube was then centrifuged at 3700 g for 2 min, and 150 μl of the supernatant was removed for liquid scintillation counting. […] The total protein in each fraction used was assayed according to a previous method. PDE activities are reported as nmol/mg/min.

[1] = system: ovalbumin-induced airway hyperresponsiveness; test: Airway hyperresponsiveness, FlexiVent (RL, Cdyn) in OVA-sensitized and challenged mice; type: in vivo, BABL/c mice
Experimental: According to the schedule (Figure 1), ten female BABL/c mice in each group were sensitized by an intraperitoneal (i.p.) injection of 20 μg of OVA emulsified in 2.25 mg of an aluminum hydroxide gel, prepared from aluminum sulfate hexadecahydrate, in a total volume of 100 μl on days 0 and 14. On day 21, these mice were injected with (i.p.) 100 μl of a mixture of 1% OVA and Freund's complete adjuvant (1:1). Mice were challenged via the airway using 1% OVA in saline for 30 min on days 28, 29, and 30 by ultrasonic nebulization. After the last of OVA challenges, AHR was assessed on day 32 (48 h after 1% OVA provocation) in each group. […] For comparison, sham-treated mice were challenged with saline instead of 1% OVA (non-challenged). […] AHR was assessed using two methods: (1) in anesthetized ventilated mice, AHR was assessed as previously described by measuring changes in the airway resistance (RL, cmH2O/ml/sec) and lung dynamic compliance (Cdyn, ml/cmH2O) after challenge with aerosolized methacholine (MCh, 0.78~25 mg/ml) using the FlexiVent system (SCIREQ, Montreal, Quebec, Canada). Anesthetized (urethane 600 mg/kg and chloralose 120 mg/kg, i.p.), tracheostomized (stainless-steel cannula, 18 G) mice were mechanically ventilated (at 150 breaths/min, with a tidal volume of 10 ml/kg, positive end-expiratory pressure of 3 cmH2O). (2) in unrestrained animals by barometric plethysmography using a whole-body plethysmograph (WBP) and analyzed using software of Life Science Suite P3 Analysis Modules (Gould, LDS Test and Measurement LLC, Valley View, OH, USA). Mice were placed into the main chamber of the WBP, and the baseline enhanced pause (Penh) value was determined.

[2] = system: cytokines in bronchoalveolar lavage fluid; test: Cytokine levels in BALF of sensitized and challenged mice (CBA kits); type: in vivo, BABL/c mice
Experimental: According to the schedule (Figure 1), ten female BABL/c mice in each group were sensitized by an intraperitoneal (i.p.) injection of 20 μg of OVA emulsified in 2.25 mg of an aluminum hydroxide gel, prepared from aluminum sulfate hexadecahydrate, in a total volume of 100 μl on days 0 and 14. On day 21, these mice were injected with (i.p.) 100 μl of a mixture of 1% OVA and Freund's complete adjuvant (1:1). Mice were challenged via the airway using 1% OVA in saline for 30 min on days 28, 29, and 30 by ultrasonic nebulization. After the last of OVA challenges, AHR was assessed on day 32 (48 h after 1% OVA provocation) in each group. […] For comparison, sham-treated mice were challenged with saline instead of 1% OVA (non-challenged). […] AHR was assessed using two methods: (1) in anesthetized ventilated mice, AHR was assessed as previously described by measuring changes in the airway resistance (RL, cmH2O/ml/sec) and lung dynamic compliance (Cdyn, ml/cmH2O) after challenge with aerosolized methacholine (MCh, 0.78~25 mg/ml) using the FlexiVent system (SCIREQ, Montreal, Quebec, Canada). Anesthetized (urethane 600 mg/kg and chloralose 120 mg/kg, i.p.), tracheostomized (stainless-steel cannula, 18 G) mice were mechanically ventilated (at 150 breaths/min, with a tidal volume of 10 ml/kg, positive end-expiratory pressure of 3 cmH2O). (2) in unrestrained animals by barometric plethysmography using a whole-body plethysmograph (WBP) and analyzed using software of Life Science Suite P3 Analysis Modules (Gould, LDS Test and Measurement LLC, Valley View, OH, USA). Mice were placed into the main chamber of the WBP, and the baseline enhanced pause (Penh) value was determined. […] Twenty-four hours after Penh determination, these mice were anesthetized with pentobarbital (50 mg/kg, i.p.), and the lungs were lavaged via a tracheal tube with PBS (1 × 1.0 ml, 37°C). After lavage, blood was collected from the jugular vein and allowed to sit so that it would coagulate. The collected bronchoalveolar lavage fluid (BALF) and coagulated blood were respectively centrifuged at 630 g for 7 min and at 3700 g for 10 min at 4°C. After centrifugation, the BALF and serum supernatants were stored at -20°C until determination of cytokines, including interleukin (IL)-2, IL-4, IL-5, tumor necrosis factor (TNF)-α, and interferon (IFN)-γ by flow cytometric methods using mouse T helper (Th)1/Th2 cytokine CBA kits, and of total immunoglobulin (Ig)E or IgG2a using ELISA kits (Pharmingen, San Diego, CA, USA) according to the respective recommendations of the manufacturers. OVA-specific IgE was measured as described previously. Wells were coated with 100 μl of OVA (20 μg/ml) instead of the capture antibody. Levels are expressed in arbitrary units, where 1 arbitrary unit equals the optical density of the sample divided by the optical density of unchallenged mouse serum or BALF (standard). The BALF pellet was resuspended in ACK lysing buffer (1.658 g NH4Cl, 0.2 g KHCO3 and 1.44 mg EDTA in 200 ml of water) to lyse the residual erythrocytes in each sample. The number of inflammatory cells was counted using a hemocytometer (Hausser Scientific, Horsham, PA, USA). Cytospun slides were stained and differentiated in a blinded fashion by counting at least 100 cells under light microscopy. All undetectable data (< 1 pg/ml) of cytokines were taken as 0 pg/ml.

[3] = 3~30 μmol/kg p.o., MCh 6.25~25 mg/ml

COc1cc(O)c2c(c1)O[C@H](c1ccc(OC)c(OC)c1)CC2=O [HDME, hesperetin-7,3'-O-dimethylether]
IC50 (PDE5): > 100 µM
RL value at the baseline ([1]; 3 μmol/kg p.o.): 1.06 ± 0.05 cmH2O/ml/s
RL value of PBS nebulization ([1]; 3 μmol/kg p.o.): 1.10 ± 0.07 cmH2O/ml/s
RL value at the baseline ([1]; 10 μmol/kg p.o.): 1.08 ± 0.06 cmH2O/ml/s
RL value of PBS nebulization ([1]; 10 μmol/kg p.o.): 1.06 ± 0.04 cmH2O/ml/s
RL value at the baseline ([1]; 30 μmol/kg p.o.): 1.09 ± 0.07 cmH2O/ml/s
RL value of PBS nebulization ([1]; 30 μmol/kg p.o.): 1.07 ± 0.06 cmH2O/ml/s
effect on MCh-induced decrease of lung dynamic compliance (Cdyn) [1, 3]: significantly suppressed
effect on MCh-induced increase of airway resistance (RL) [1, 3]: significantly suppressed
effect on level of IFN-γ in BALF ([2]; 30 μmol/kg p.o.): enhanced
effect on increase in level of IL-2 in BALF ([2]; 3~30 μmol/kg p.o.): significantly suppressed
effect on increase in level of IL-4 in BALF ([2]; 3~30 μmol/kg p.o.): significantly suppressed
effect on increase in level of IL-5 in BALF ([2]; 3~30 μmol/kg p.o.): significantly suppressed
effect on increase in level of TNF-α in BALF ([2]; 3~30 μmol/kg p.o.): significantly suppressed
